In US8642834B2, “Methods for the identification of agents that inhibit mesenchymal-like tumor cells or their formation” (OSI Pharmaceuticals, LLC, priority 2009, dated 2014):

Assays:
Assay type in all cases: cell-based, human
[1] = test system: CFPAC1 cells; assay: Transcriptional changes to EMT genes, qPCR
Experimental: The CFPAC1 cell line was cultured in DMEM media (Gibco #11960) supplemented with 10% FBS (Sigma), 2 mM L Glutamine (Gibco), at 37° C., 5% CO2. For 7 day treatments, cells were seeded on tissue culture plastic in complete growth media and allowed to attach overnight at cell densities that would provide approximately 60-80% confluence at end of experiment. Ligand and/or inhibitor was added the following day (Day 0) in complete growth media and incubated at 37° C., 5% CO2. Ligand source and concentrations used are as follows: [1] From R&D systems, SDF-1α (stromal derived factor-1 alpha) at 100 ng/ml, TRANCE (TNF-related activation induced cytokine) at 50 ng/ml, FGF1 (fibroblast growth factor acidic) at 10 ng/ml, FGF2 (fibroblast growth factor basic) at 10 ng/ml, BMP4 (bone morphogenetic protein 4) at 100 ng/ml, BMP7 (bone morphogenetic protein 7) at 100 ng/ml, IGF2 (insulin-like growth factor 2) at 100 ng/ml, OSM (Oncostatin M) at 100 ng/ml, NRG1 (Neuregulin-1) at 50 ng/ml, PDGFaa (Platelet derived growth factor a) at 50 ng/ml, PDGFbb (platelet derive growth factor b) at 30 ng/ml, Ang2 (Angiopoeitin 2) at 400 ng/ml, amphiregulin at 100 ng/ml, HMGB 1 (Human high-mobility group box 1 protein) at 50 ng/ml; [2] From Genscript, LIF (Leukemia inhibitory factor) at 20 ng/ml, GM-CSF (Granulocyte macrophage colony stimulating factor) at 25 ng/ml, M-CSF (Macrophage colony stimulating factor) at 50 ng/ml; [3] From Anaspec, PAR1 (Protease activated receptor 1 agonist) at 100 μM; PAR2 (Protease activated receptor 2 agonist; peptide SLIGKV-NH2, Cat. No. 60217-1) at 100 μM; PAR4 (Protease activated receptor […] agonist; peptide AYPGKF-NH2, Cat. No. 60218-1) at 100 μM; [4] From Peprotech, HGF (Hepatocyte Growth Factor) at 100 ng/ml; IL-31 (Interleukin-31) at 50 ng/ml, IL-33 (Interleukin-33) at 50 ng/ml, IL1-a (Interleukin-1 alpha) at 10 ng/ml, CTGF (Connective tissue growth factor) at 20 ng/ml, WISP1 (Wnt-1 inducible signaling pathway protein) at 20 ng/ml, PTHrP ([…] hormone-related protein) at 50 ng/ml, MCP1 (monocyte chemotactic protein-1) at 50 ng/ml; and [5] from Sigma, Fulvestrant at 1 μM. Fresh medium containing ligand and/or inhibitor was added 3-4 days after initial dose, and at Day 7 cells were harvested for western blot analysis.
Cells were plated and treated with ligand for one or 7 days. At the time of harvest, cells were trypsinized and snap frozen for later use. Total RNA was isolated using RNAqueous-4 PCR Kit (Ambion, AM1914). For qPCR on tumor material, the tumor samples were homogenized using a small tissue homogenizer (Ultra-Turrax T8 from IKA-Werke) in 175ul RNA lysis buffer. Homogenization was for 1 minute on ice. RNA was isolated using the SV Total RNA Isolation System (Promega Cat #Z3100) according to the manufactures instructions. Samples were DNase treated using the Turbo DNA-Free kit (Ambion, AM1907) and reverse transcribed using Superscript III (Invitrogen, 18080-044) for qPCR analysis. Taqman primers and Locked-Nucleic Acid probes were designed using ProbeFinder software (Universal Probe library, Roche). For mRNA analysis, real time PCR was performed using the ABI 7900HT series PCR machine. Thermocycle conditions were as follows: 50° C. for 2 minutes, 95° C. for 10 minutes, 95° C. for 15 seconds, 50° C. for 10 seconds, 60° C. for 1 minute. Data was collected over 45 cycles and then normalized to GAPDH and further normalized to the untreated control sample.

[2] = test system: CFPAC-1 cells; assay: MET/EMT reversion experiment (ligand withdrawal); settings: ligand 14 days, then removed; morphology and E-cadherin/vimentin immunoblot
Experimental: Cells were cultured in complete medium with and without ligand for 14 days, during which time the media and ligand treatment was replaced every 3-4 days. 3 Days prior to the first time point (Day 14), cells were trypsinised, counted and seeded into plastic 35 mm dishes at appropriate seeding densities for the first 3 collection time points. 3 Days prior to the last of the 3 collection time points, the procedure was repeated for the second 3 collection time points, and so on until all time points were collected. Ligand was removed from all cultures at Day 14. At the time of harvest, cells were harvested as described in the western blotting section above. All samples were micro-centrifuged and stored at −80° C. until the end of the experiment, at which time all samples were processed for western blotting.

[3] = test system: CFPAC1 cells; assay: 2D immunofluorescence of E-cadherin and vimentin; settings: cells treated 7 days with ligand, compared to untreated cells
Experimental: Cells were plated on coverslips and stimulated with ligand the following day (day 0). On day 4, medium and ligands were refreshed. After 7 days, the cells were fixed in 4% paraformaldehyde (EMS#15701)/PBS (Gibco #14190) for 10 minutes at room temperature, and then permeabilized in 0.1% Triton X-100 (Sigma #P1379)/PBS for 10 minutes. Cells were blocked in 3% BSA/PBS for one hour and incubated in primary antibody solution (E-cadherin, Santa Cruz #sc21791 and Vimentin, Chemicon #AB5733 in blocking buffer) for two hours at room temperature. Cells were washed in PBS and incubated in secondary antibody (Invitrogen #A11029 and Chemicon #AP194R) for one hour followed by nuclear counterstain TO-PRO3 (Invitrogen #T3605). Coverslips were mounted on slides with Pro-Long Gold antifade reagent (Invitrogen P36934). Images were captured on a Leica DMRXE microcope with SP2 scanner using Leica Confocal Software.

[4] = test system: CFPAC-1 cells; assay: Cell morphology by light microscopy; settings: treated 7 days; versus untreated cells that formed colonies
Experimental: The CFPAC1 cell line was cultured in DMEM media (Gibco #11960) supplemented with 10% FBS (Sigma), 2 mM L Glutamine (Gibco), at 37° C., 5% CO2. For 7 day treatments, cells were seeded on tissue culture plastic in complete growth media and allowed to attach overnight at cell densities that would provide approximately 60-80% confluence at end of experiment. Ligand and/or inhibitor was added the following day (Day 0) in complete growth media and incubated at 37° C., 5% CO2. Ligand source and concentrations used are as follows: [1] From R&D systems, SDF-1α (stromal derived factor-1 alpha) at 100 ng/ml, TRANCE (TNF-related activation induced cytokine) at 50 ng/ml, FGF1 (fibroblast growth factor acidic) at 10 ng/ml, FGF2 (fibroblast growth factor basic) at 10 ng/ml, BMP4 (bone morphogenetic protein 4) at 100 ng/ml, BMP7 (bone morphogenetic protein 7) at 100 ng/ml, IGF2 (insulin-like growth factor 2) at 100 ng/ml, OSM (Oncostatin M) at 100 ng/ml, NRG1 (Neuregulin-1) at 50 ng/ml, PDGFaa (Platelet derived growth factor a) at 50 ng/ml, PDGFbb (platelet derive growth factor b) at 30 ng/ml, Ang2 (Angiopoeitin 2) at 400 ng/ml, amphiregulin at 100 ng/ml, HMGB 1 (Human high-mobility group box 1 protein) at 50 ng/ml; [2] […]

**Q.** For “HGF: Hepatocyte Growth Factor from Peprotech, used at 100 ng/ml”, which “ACTN1 mRNA fold change” value ([1]; ligand 1 Day) is on record?
**A.** NC (Only changes greater than 3 fold are reported. NC indicates no change.)

**Q.** What about the “CDH1 mRNA fold change” value ([1]; ligand 1 Day) of the same substance?
**A.** NC (Only changes greater than 3 fold are reported. NC indicates no change.)

**Q.** And the “CDH2 mRNA fold change” value ([1]; ligand 1 Day)?
**A.** NC (Only changes greater than 3 fold are reported. NC indicates no change.)

**Q.** And the “ITGB3 mRNA fold change” value ([1]; ligand 1 Day)?
**A.** NC (Only changes greater than 3 fold are reported. NC indicates no change.)

**Q.** What about the “MMP7 mRNA fold change” value ([1]; ligand 1 Day) of the same substance?
**A.** NC (Only changes greater than 3 fold are reported. NC indicates no change.)

**Q.** What about the “MTA3 mRNA fold change” value ([1]; ligand 1 Day) of the same substance?
**A.** NC (Only changes greater than 3 fold are reported. NC indicates no change.)

**Q.** What about the “PLAUR mRNA fold change” value ([1]; ligand 1 Day) of the same substance?
**A.** NC (Only changes greater than 3 fold are reported. NC indicates no change.)

**Q.** What about the “SNAI1 mRNA fold change” value ([1]; ligand 1 Day) of the same substance?
**A.** NC (Only changes greater than 3 fold are reported. NC indicates no change.)

**Q.** And the “SNAI2 mRNA fold change” value ([1]; ligand 1 Day)?
**A.** NC (Only changes greater than 3 fold are reported. NC indicates no change.)

**Q.** What about the “SPARC mRNA fold change” value ([1]; ligand 1 Day) of the same substance?
**A.** NC (Only changes greater than 3 fold are reported. NC indicates no change.)

**Q.** What about the “TWIST1 mRNA fold change” value ([1]; ligand 1 Day) of the same substance?
**A.** NC (Only changes greater than 3 fold are reported. NC indicates no change.)

**Q.** What about the “VIM mRNA fold change” value ([1]; ligand 1 Day) of the same substance?
**A.** NC (Only changes greater than 3 fold are reported. NC indicates no change.)

**Q.** What about the “ZEB1 mRNA fold change” value ([1]; ligand 1 Day) of the same substance?
**A.** NC (Only changes greater than 3 fold are reported. NC indicates no change.)

**Q.** What about the “ZEB2 mRNA fold change” value ([1]; ligand 1 Day) of the same substance?
**A.** NC (Only changes greater than 3 fold are reported. NC indicates no change.)

**Q.** And the “ACTN1 mRNA fold change” value ([1]; ligand 7 Day)?
**A.** NC (Only changes greater than 3 fold are reported. NC indicates no change.)

**Q.** What about the “CDH1 mRNA fold change” value ([1]; ligand 7 Day) of the same substance?
**A.** NC (Only changes greater than 3 fold are reported. NC indicates no change.)

**Q.** What about the “CDH2 mRNA fold change” value ([1]; ligand 7 Day) of the same substance?
**A.** NC (Only changes greater than 3 fold are reported. NC indicates no change.)

**Q.** And the “ITGB3 mRNA fold change” value ([1]; ligand 7 Day)?
**A.** 3.57 fold

**Q.** What about the “MMP7 mRNA fold change” value ([1]; ligand 7 Day) of the same substance?
**A.** NC (Only changes greater than 3 fold are reported. NC indicates no change.)

**Q.** What about the “MTA3 mRNA fold change” value ([1]; ligand 7 Day) of the same substance?
**A.** NC (Only changes greater than 3 fold are reported. NC indicates no change.)

**Q.** What about the “PLAUR mRNA fold change” value ([1]; ligand 7 Day) of the same substance?
**A.** NC (Only changes greater than 3 fold are reported. NC indicates no change.)

**Q.** What about the “SNAI1 mRNA fold change” value ([1]; ligand 7 Day) of the same substance?
**A.** NC (Only changes greater than 3 fold are reported. NC indicates no change.)

**Q.** And the “SNAI2 mRNA fold change” value ([1]; ligand 7 Day)?
**A.** NC (Only changes greater than 3 fold are reported. NC indicates no change.)

**Q.** What about the “SPARC mRNA fold change” value ([1]; ligand 7 Day) of the same substance?
**A.** −5.41 fold

**Q.** And the “TWIST1 mRNA fold change” value ([1]; ligand 7 Day)?
**A.** 612 fold

**Q.** And the “VIM mRNA fold change” value ([1]; ligand 7 Day)?
**A.** NC (Only changes greater than 3 fold are reported. NC indicates no change.)

**Q.** And the “ZEB1 mRNA fold change” value ([1]; ligand 7 Day)?
**A.** NC (Only changes greater than 3 fold are reported. NC indicates no change.)

**Q.** And the “ZEB2 mRNA fold change” value ([1]; ligand 7 Day)?
**A.** NC (Only changes greater than 3 fold are reported. NC indicates no change.)

**Q.** And the “Reversal of EMT upon withdrawal of ligand” value [2]?
**A.** can be reversed

**Q.** What about the “E-cadherin and vimentin staining” value [3] of the same substance?
**A.** strong vimentin staining with no E-cadherin

**Q.** What about the Cell morphology [4] of the same substance?
**A.** less compact with more elongated cell morphology
